# Entries after “also recorded” stand apart in the source; their conditions may differ.
# Columns and labels:
# Assay type in all cases: cell-based, human
# Wildtype CLL cells = assay: Compound toxicity assay for CLL patient cells (wildtype); conditions: FIG. 1A; for sensitivity of wildtype CLL cells to the compound: single agent, feeder layer of CD40 ligand-expressing NIH 3T3 cells
# del(11q) CLL cells = assay: Compound toxicity assay for CLL patient cells (del(11q)); conditions: single agent; feeder layer of CD40 ligand-expressing NIH 3T3 cells; FIG. 1B
# IGVH mutated CLL cells = assay: CLL patient cells apoptosis assay (DioC6/PI); conditions: 48 hours; FIGS. 2A, E
# Description: (§1) CLL Patient Cells Apoptosis Assay. Patient material ([…] blood) was obtained from CLL patients (diagnosed according to the NCI-WG guidelines) after routine follow-up or diagnostic procedures at the department of hematology of the Academic Medical Center Amsterdam. Peripheral blood mononuclear cells (PBMCs) were isolated by Ficoll density gradient centrifugation and stored in liquid nitrogen, as cell suspension in heat-inactivated fetal calf serum containing 10% DMSO. During all in vitro experiments, cells were maintained in culture medium: Iscove's modified Dulbecco medium supplemented with 10% heat-inactivated FCS, 100 U/mL penicillin, […] gentamycin and 0.00036% β-mercaptoethanol. All samples contained at least 90% CD5+/CD19+ cells as assessed via flow cytometry. B-CLL cells were thawed and diluted to a concentration of 1.10^6 cells/mL in IMDM plus supplements as described above. […] Apoptosis was analyzed by evaluation of mitochondrial membrane potential with DioC6 (Molecular probes). Cells were incubated with 10 nM DioC6 for 30 minutes at 37° C. and 20 μg/mL propidium iodide was added to measure cell death. Expression of DioC6 was determined using the FACSCalibur flow cytometer and CellQuest software was used for data acquisition. Data were analyzed with FlowJo software (TreeStar, San Carlos, Calif., USA).
# IGVH unmutated CLL cells = assay: CLL patient cells apoptosis assay (DioC6/PI); conditions: 48 hours; FIGS. 2B, F
# Description: as §1
# P53 mutated CLL cells = assay: CLL patient cells apoptosis assay (DioC6/PI); conditions: 48 hours, FIGS. 2C
# Description: as §1
# ATM mutated CLL cells = assay: CLL patient cells apoptosis assay (DioC6/PI); conditions: 48 hours; FIGS. 2D, G
# Description: Patient material (pheripheral blood) was obtained from CLL patients (diagnosed according to the NCI-WG guidelines) after routine follow-up or diagnostic procedures at the department of hematology of the Academic Medical Center Amsterdam. Peripheral blood mononuclear cells (PBMCs) were isolated by Ficoll density gradient centrifugation and stored in liquid nitrogen, as cell suspension in heat-inactivated fetal calf serum containing 10% DMSO. During all in vitro experiments, cells were maintained in culture medium: Iscove's modified Dulbecco medium supplemented with 10% heat-inactivated FCS, 100 U/mL penicillin, 100 m/mL gentamycin and 0.00036% β-mercaptoethanol. All samples contained at least 90% CD5+/CD19+ cells as assessed via flow cytometry. […] Apoptosis was analyzed by evaluation of mitochondrial membrane potential with DioC6 (Molecular probes). Cells were incubated with 10 nM DioC6 for 30 minutes at 37° C. and 20 μg/mL propidium iodide was added to measure cell death. Expression of DioC6 was determined using the FACSCalibur flow cytometer and CellQuest software was used for data acquisition.
# CLL cells [1] = assay: Detection of apoptosis with QvD or NAC co-treatment (DiOC6/PI); conditions: 5 mM NAC, 48 hours
# Description: Apoptosis levels were measured by Flow using DiOC6/PI staining and specific apoptosis was calculated. Results are shown as mean±SEM.
# Where indicated, CLL cells were co-cultured in the presence/absence of 20 μM of the pancaspase inhibitor QvD or 5 mM N-acetyl-L-cysteine (NAC). CLL cell viability was measured by analysis of mitochondrial transmembrane potential by 3,3-dihexyloxocarbocyanine iodine (DiOC6; Invitrogen/Molecular Probes) and cell membrane permeability to propidium iodide (PI; Sigma Aldrich) using the FACS Calibur flow cytometer. Specific apoptosis is defined as [% cell death in drug treated cells]−[% cell death in medium control]/[% viable cells medium control]×100 using the Graphpad Prism software (Graphpad Prism 5.0, La Jolla, USA).
# [2] = tested on: mRNA of pro-/anti-apoptotic mediators in CLL cells; assay: RT-MLPA of pro- and anti-apoptotic regulators; conditions: 1 μM, 24 hours
# Description: Reverse Transcription-Multiplex Ligation-Dependent Probe Amplification Assay.
# CLL Cells were harvested per stimulation, washed with PBS, resuspended in RNA lysis buffer (Qiagen, Venlo, the Netherlands) and stored at −80° C. RNA was isolated using the GenElute Mammalian Total RNA Miniprep kit (Sigma-aldrich). The concentration and purity of the RNA were determined with a NanoDrop spectrophotometer ND-1000 (NanoDrop Technologies, Willington, USA). Reverse transcription-multiplex ligation-dependent probe amplification assay (RT-MLPA) procedure was performed as described previously by Eldering et al. Nucleic Acids Res. 2003; 31:e153. In brief, 40-60 ng of total RNA of samples were first reverse transcribed using a gene-specific probe mix (R016-X2). The resulting cDNA was annealed overnight at 60° C. to the MLPA probes. The annealed oligonucleotides were covalently linked by Ligase-65 (MRC, Amsterdam, the Netherlands) at 54° C. […] Results were analyzed using the programs Genescan analysis and Genotypes (Applied Biosystems). Data was further analyzed with Microsoft Excel Spreadsheet software. Normalization was performed by setting the sum of all data per sample at 100% and individual peaks were calculated relative to the 100% value.
# primary CLL cells = assay: BCR-mediated adhesion of primary CLL cells to fibronectin; conditions: 1 μM pretreatment; IgVH unmutated samples; n=5
# Description: Graphs are presented as normalized mean±SEM (100%=stimulated cells without inhibitors). *0.01≤P<0.05; **0.001≤P<0.01 (paired one sample T test) (n=5). BCR-mediated adhesion of primary CLL cells (FIG. 4) was tested.
# phospho-S6 = assay: Western blot of mTOR pathway, unstimulated CLL cells; conditions: 1 μM, 2 hours
# Description: (§2) Protein lysates were probed for phospho-S6 and actin for loading control. Blots from three representative CLL samples are shown, of a total of five analyzed. […] Blots were probed for p-Akt(Thr308), p-Akt (Ser473), p-S6, p-4EBP1 and actin for loading control. Blots from two representative CLL samples shown, of a total of four analyzed.
# (§3) Western blot analysis was performed using standard techniques [Hallaert et al. Blood 2008(112):5141-5149]. Samples (50 μg protein) were separated by 13% SDS-PAGE gel electrophoresis. Membranes were probed with anti-p-S6, p-4EBP1, p-Akt (Thr308), p-Akt (Ser473) (Cell Signaling), Bim (Stressgen Bioreagents Canada) and antiserum to β-actin (Santa Cruz Biotechnology) as loading control. Blots were subsequently incubated with IRDye 680 or 800 labelled secondary antibodies for 1 hour. Odyssey Imager (Li-Cor Biosciences) was used as a detection method according to the manufacturer's protocol. For the p-DNA-PK western blot, cells were lysed in RIPA sample buffer and sonificated. Samples (50 μg protein) were separated by mini protean TGX gels (Biorad). Transfer onto Immobilon-FL transfer membrane (Millipore) in 1× transfer buffer, 20% MeOH at 30 volts at 4° C. overnight. The following antibodies were used: p-DNA-PK (Ser2056) (Abcam), KAP (TIF1β), phosphorylated-KAP (phospho-TIF1β-ser824; Cell Signalling) and β-actin (Santa Cruz).
# [3] = tested on: p-S6, p-4EBP1, p-Akt (Ser473); assay: Western blot of mTOR pathway, CD40L-activated CLL cells; conditions: 100, 500 or 1000 nM, 72 hours
# Description: as §2, §3
# CLL cells [4] = assay: Blast cell formation of CD40L-cocultured CLL cells (FACS); conditions: CD40L coculture; 1 μM, 3 days
# Description: FIG. 6A and FIG. 6B) Blast cell formation was assessed by FACS analysis and results are shown as mean±SEM. *0.01≤P<0.05; **0.001≤P<0.01; ***P<0.001 (paired one sample T test) FIG. 6C) CLL cells were examined for surface expression of CD95 (Fas), CD44, CD54 (ICAM) and CD58 (LFA-3) by flow cytometry. Results are shown as mean±SEM (n=6).
# [5] = tested on: CD95, CD54, CD58, CD44 on CLL cells; assay: Expression of cell surface markers (flow cytometry); conditions: CD40L coculture; 1 μM, 3 days
# Description: Expression of Cell Surface Markers.
# Cells were washed and resuspended in staining media (phosphate-buffered saline (PBS) containing 0.5% (wt/vol) bovine serum albumin (BSA)). For analysis of expression of cell surface markers, different combinations of antibodies were used. CD54-PE and CD95-FITC purchased from Pharmingen. CD44-Alexa Fluor 700 was obtained from eBiosciences and CD58 from Immunotech. After incubation for 30 minutes at 4° C. protected from light, cells were washed twice in PBS/0.5% BSA and expression of cell surface markers was analyzed using FACSCalibur flow cytometry.
# CLL cells [6] = assay: CD40L coculture survival and fludarabine sensitivity assay (DiOC6/PI)
# Description: (§4) FIG. 7A) Apoptosis was assessed by DiOC6/PI staining and results are shown as mean±SEM (n=7). *0.01≤P<0.05; **0.001≤P<<0.01; ***P<0.001 (paired T test). FIG. 7B) After 3 days, fludarabine sensitivity assay was performed. Apoptosis was assessed by DiOC6/PI staining and specific apoptosis are shown as mean±SEM (n=7). *0.01≤P<0.05; **0.001≤P<0.01 (paired T test) FIG. 7C) mRNA levels of pro-/anti-apoptotic mediators in CLL cells were measured by RT-MLPA (n=6). FIG. 7D) Protein lysates were probed for Bim and actin for loading control. Blots from two representative CLL samples shown, of a total of four analyzed.
# CD40 stimulation inhibits spontaneous cell death as previously reported [Burger et al. Blood 2009(114):2560-2561]. Lymphocytes of CLL patients were stimulated by coculture with NIH3T3 fibroblasts stably transfected with human CD40L or negative control plasmid (3T3) as described before [Pascutti et al Blood 2013 2013; 122(17):3010-9]. […] After 72 hours of culture, CLL cells were detached and either used for flowcytrometic analyses or subsequently incubated with or without Fludarabine (Sigma) for an additional 48 hours. CLL cell viability was measured as by DiOC6/PI staining as described above. […] CD40L stimulation induces resistance to cytotoxic agents, including fludarabine [Kater et al. Brit J Haematology 2004; 127:404-415].
# BIM and BID mRNA = assay: RT-MLPA in CD40L triggered CLL cells; conditions: 1 μM, 3 days
# Description: as §4
# Bim = Bim protein Western blot in CD40L-cocultured CLL cells; conditions: CD40L coculture; 1 μM, 3 days
# Description: as §4
# as §3, with “Transfer onto Immobilon-FL transfer membrane (Millipore) in 1× transfer buffer, 20% MeOH at 30 volts at 4° C. overnight. The following antibodies were used: p-DNA-PK (Ser2056) (Abcam), KAP (TIF1β), phosphorylated-KAP (phospho-TIF1β-ser824; Cell Signalling) and β-actin (Santa Cruz).” left out
# CLL cells [7] = assay: CFSE proliferation assay of CLL cells on 3T40L cells with IL-21; conditions: CD40L + IL-21 (25 ng/ml); 1 μM, 4 days
# Description: After 4 days, CFSE was measured by FACS. […] FIG. 8B) Division index was calculated with FlowJo program. […] PBMC (1.0×10^7/mL) were labelled with 0.5 μM carboxyfluorescein diacetate succinimidyl ester (CFSE, Molecular Probes) as described before [Pascutti et al Blood 2013 2013; 122(17):3010-9]. […] After 4 days, proliferation was assessed in a FACS Canto (BD Biosciences) and analyzed with FlowJosoftware (TreeStar, Ashland, Oreg.).
compound,measurement,setting,value
"CCN1C(=O)CNc2ncc(-c3ccc(-c4nc[nH]n4)nc3C)nc21 [Compound 1, 1-ethyl-7-(2-methyl-6-(1H-1,2,4-triazol-3-yl)pyridin-3-yl)-3,4-dihydropyrazino[2,3-b]pyrazin-2(1H)-one]",enhancement of response by addition of Compound 1 to the etoposide regimen,"Wildtype CLL cells; combination with etoposide, ATM-proficient CLL cells",did not significantly enhance
same,sensitivity of wildtype CLL cells to the compound,Wildtype CLL cells,resistant
same,sensitivity of del(11q) CLL cells to the compound,del(11q) CLL cells,exclusively sensitive
same,induction of apoptosis,IGVH mutated CLL cells,induced apoptosis
same,induction of apoptosis,IGVH unmutated CLL cells,induced apoptosis
same,induction of apoptosis,P53 mutated CLL cells,induced apoptosis
same,induction of apoptosis,ATM mutated CLL cells,induced apoptosis
same,ROS dependence of cell death: effect of NAC co-treatment on cell death,CLL cells [1],did not result in inhibition
same,"levels of pro- and anti-apoptotic regulators on RNA level, including p53-target genes",[2],not altered
same,anti-IgM-stimulated integrin-mediated adhesion to fibronectin,primary CLL cells,strongly inhibited
same,phosphorylation of S6,phospho-S6,completely blocked
same,p-4EBP1 upregulation,[3],completely blocked
same,p-Akt (Ser473) upregulation,[3],completely blocked
same,p-S6 upregulation,[3],completely blocked
same,blast-like appearance / blast cell formation,CLL cells [4],completely blocked
same,"3T40L-induced upregulation of immune accessory molecules (CD95, CD54, CD58, CD44)",[5],significant inhibition
same,fludarabine sensitivity,"CLL cells [6]; 72 hours CD40L coculture, then fludarabine 48 hours",partly reversed
same,CD40L-induced survival,"CLL cells [6]; CD40L coculture, 1 μM, 3 days",inhibited
same,CD40-induced fludarabine resistance,"CLL cells [6]; co-treatment with Compound 1 during CD40L coculture, then fludarabine 48 hours",completely abolished
same,CD40-mediated inhibition of BIM (RNA),BIM and BID mRNA,blocked
same,upregulation of BID (RNA),BIM and BID mRNA,decreased
same,CD40-mediated decreased expression of Bim protein,Bim,blocked
same,proliferation of CLL cells,CLL cells [7],completely blocks; also recorded: fully blocked
"COc1cc([C@@H]2c3cc4c(cc3[C@@H](O[C@@H]3O[C@@H]5CO[C@@H](C)O[C@H]5[C@H](O)[C@H]3O)[C@H]3COC(=O)[C@H]23)OCO4)cc(OC)c1O [etoposide, reference compound]",sensitivity of wildtype CLL cells to the compound,Wildtype CLL cells,highly sensitive
same,sensitivity of del(11q) CLL cells to the compound,del(11q) CLL cells,largely resistant
